Source: EP4786454A1, “HETEROARYL DERIVATIVE AND USE THEREOF” (priority 2023, dated 2025)
Where two headings read alike, the source gives them in different places.

What was measured:
hERG potassium channels = biological target: T1, hERG potassium channels (Homo sapiens, UniProt Q12809); assay: Automated patch-clamp (Qpatch) assay on CHO-hERG cells; assay type: cell-based
T1 construct: expressed in transfected cells; host or cells: CHO-hERG
Description: CHO-hERG cells were cultured in a 175 cm^2 culture flask. When cells grew to a density of 60 to 80%, the culture medium was removed. Cells were washed once with 7 mL of PBS (Phosphate Buffered Saline), and then 3 mL of cell dissociation reagent was added for digestion. After the digestion was completed, 7 mL of culture medium was added for neutralization, and then the mixture was centrifuged. The supernatant was aspirated, and then 5 mL of culture medium was added to resuspend the cells and ensure that the cell density was 2~5×10^6/mL.
The compound stock solution was diluted with DMSO. 10 µL of compound stock solution was added to 20 µL of DMSO solution, followed by 3-fold serial dilution to obtain 6 DMSO concentrations. 4 µL of the compound solution at each of the six DMSO concentrations was added to 396 µL of extracellular solution to achieve a 100-fold dilution to obtain six intermediate concentrations. Then, 80 µL of the compound solution at each of the six intermediate concentrations was added to 320 µL of extracellular solution to achieve a 5-fold dilution to the desired final test concentrations. […]
The electrophysiological process was recorded. […] This voltage stimulation was applied every 15 seconds, and recorded for 2 minutes. The extracellular solution was then given, and recorded for 5 minutes. […]
Assay data were analyzed by GraphPad Prism 5.0 software. […]

[1] = Pharmacokinetic evaluation after single intravenous and gavage administration; settings: mouse, in vivo, CD-1 mice, IV:1 PO:5 mg/kg
Description: Assay method: Mix a test compound with a mixture of 5% DMSO, 60% polyethylene glycol (PEG400) and 35% water, vortex and sonicate to prepare a clear solution of 0.2 mg/mL. Filter the solution through a microporous filter membrane for later use. Select the male CD-1 mice weighing 25 to 35 g, and administer a candidate compound solution to them via intravenous injection at a dosage of 1 mg/kg. After fasting, administer the candidate compound solution to them orally at a dosage of 5 mg/kg. After the administration to the animals, collect 25 µL of blood at 0.083, 0.25, 0.5, 1, 2, 4, 8, 12, and 24 hours, and place the blood in commercially available anticoagulant tubes pre-filled with EDTA-K2. Centrifuge the tubes for 10 minutes to separate the plasma, and store them at -60 °C. Determine the content of the target compound in the plasma samples by LC/MS/MS, and calculate the pharmacokinetic parameters using Phoenix WinNonlin software (Pharsight, USA).
Definition of each parameter: IV: intravenous injection; PO: oral administration; C0: instantaneous required concentration after intravenous injection; Cmax: peak plasma concentration after administration; Tmax: time required to reach the peak drug concentration after administration; T1/2: time required for plasma concentration to decrease by half; Vdss: apparent volume of distribution, which refers to the ratio constant between the amount of drug in the body and the plasma concentration when the drug reaches dynamic equilibrium in the body; Cl: clearance, which refers to the apparent volume of distribution of a drug cleared from the body per unit time; Tlast: time of the last test point; AUC0-last: area under the plasma concentration-time curve, which refers to the area enclosed by the plasma concentration curve on the time axis; F: a measure of the speed and extent to which a drug is absorbed into the blood circulation, which is an important indicator for evaluating the degree of drug absorption.
The purpose of this assay was to evaluate the pharmacokinetic behaviors after a single intravenous bolus and gavage administration of a compound, to investigate the bioavailability after the gavage administration, and to provide animal experimental data for clinical research.
CD-1 mice (male, 7 to 9 weeks old)
The pharmacokinetic characteristics of the compounds after intravenous and oral administration were assayed in rodents using a standard protocol. In the assay, a candidate compound was prepared into a clear solution and administered to mice via single intravenous and oral administration. The solvent for both intravenous and oral administration was a mixed solvent prepared with 5% DMSO, 60% PEG400, and 35% water. Four female CD-1 mice were used in this project. Two mice were administered intravenously, and plasma samples were collected at 0.083, 0.25, 0.5, 1, 2, 4, 8 and 24 h after the administration. The other two mice were administered orally via gavage, and plasma samples were collected at 0.25, 0.5, 1, 2, 4, 8 and 24 h after the administration. The plasma samples were […] at 4 °C and 3,200 × g for 10 min, and the supernatants were separated to give plasma samples. 20 times the volume of methanol solution containing internal standard was added to precipitate the proteins. After centrifugation at 12,000 × g for 15 min at 4 °C, 50 µL of the supernatant was taken and transferred to a 96-well plate, and centrifuged a second time, and the resulting supernatant was injected for analysis. The plasma concentration was quantitatively analyzed by LC-MS/MS method, and the pharmacokinetic parameters such as peak concentration (Cmax), clearance (CL), half-life (T1/2), […] (Vdss), area under the plasma concentration-time curve (AUC0-last), and bioavailability (F) were calculated.

male CD-1 mice = assay: Maximal electroshock-induced epilepsy model, behavioral pharmacodynamics; assay type: in vivo; settings: 5 mg/kg orally, one hour before electrical stimulation
Description: This study used behavioral tests in male CD-1 mice to investigate the effects of test compounds on acute epileptic seizures behavior induced by maximal electroshock.
Male CD-1 mice (25 to 35g) were used as the experimental animals and fed with standard feed (Beijing Vital River Laboratory Animal Technology Co., Ltd.).
After arriving at the animal facility, the experimental animals needed to acclimatize for at least one week. The mice were observed daily for vital signs, and randomly divided into groups according to their body weights one day before the drug administration. One hour before the electrical stimulation, different dosages of the test compound were orally administered to each group. On the day of the assay, the male CD-1 mice in each group were anesthetized locally at the cornea with 2% lidocaine. Then, silver bipolar electrodes were used to electrically stimulate the cornea of the mice with 18 mA, 60 Hz, a pulse width of 0.6 ms, and a stimulation time of 1 s to induce seizures. Subsequently, the latency of seizures and the duration of limb rigidity in mice after the electrical stimulation were observed, and the protection rate from seizures for each group was statistically analyzed.

T1 sequence (Q12809 whole entry): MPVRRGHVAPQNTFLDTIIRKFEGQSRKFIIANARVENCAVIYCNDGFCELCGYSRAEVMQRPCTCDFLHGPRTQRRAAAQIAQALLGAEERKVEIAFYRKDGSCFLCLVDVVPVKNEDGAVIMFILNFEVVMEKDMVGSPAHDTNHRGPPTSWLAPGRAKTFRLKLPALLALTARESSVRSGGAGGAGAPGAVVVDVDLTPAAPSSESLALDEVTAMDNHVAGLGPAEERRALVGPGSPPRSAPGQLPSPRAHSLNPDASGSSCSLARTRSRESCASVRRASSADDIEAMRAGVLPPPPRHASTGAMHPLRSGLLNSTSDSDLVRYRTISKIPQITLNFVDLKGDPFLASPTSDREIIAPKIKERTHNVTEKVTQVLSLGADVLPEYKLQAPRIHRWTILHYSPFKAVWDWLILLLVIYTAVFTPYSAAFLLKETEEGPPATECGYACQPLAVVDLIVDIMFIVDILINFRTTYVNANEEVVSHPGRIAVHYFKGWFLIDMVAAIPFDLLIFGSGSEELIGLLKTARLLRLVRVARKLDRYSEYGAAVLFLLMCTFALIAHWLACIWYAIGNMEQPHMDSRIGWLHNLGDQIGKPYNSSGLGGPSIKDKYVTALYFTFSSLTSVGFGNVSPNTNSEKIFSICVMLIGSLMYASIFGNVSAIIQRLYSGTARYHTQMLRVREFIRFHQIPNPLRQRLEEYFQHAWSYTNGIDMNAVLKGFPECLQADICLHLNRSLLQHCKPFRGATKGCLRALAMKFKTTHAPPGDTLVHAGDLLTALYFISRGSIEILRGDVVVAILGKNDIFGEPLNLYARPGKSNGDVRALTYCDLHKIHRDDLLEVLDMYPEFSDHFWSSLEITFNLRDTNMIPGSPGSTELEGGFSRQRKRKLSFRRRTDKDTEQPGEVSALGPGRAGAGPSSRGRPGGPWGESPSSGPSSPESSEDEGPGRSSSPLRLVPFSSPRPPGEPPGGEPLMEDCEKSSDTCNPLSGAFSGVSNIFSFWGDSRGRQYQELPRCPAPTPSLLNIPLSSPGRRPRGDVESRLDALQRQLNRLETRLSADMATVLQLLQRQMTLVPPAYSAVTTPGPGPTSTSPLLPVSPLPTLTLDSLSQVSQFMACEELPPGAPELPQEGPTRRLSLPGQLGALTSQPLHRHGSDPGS

SMILES | IC50 (hERG potassium channels) | AUC(0-t) ([1]; read-out: Area under the plasma concentration-time curve AUC0-last PO) | bioavailability ([1]; read-out: Bioavailability F) | clearance ([1]; read-out: Clearance CL) | half-life ([1]; read-out: Half-life T1/2 (IV) (converted)) | Cmax ([1]; read-out: Peak concentration Cmax) | Vd ([1]; read-out: Tissue distribution Vdss) | Protection rate from seizures (male CD-1 mice) | IC50 (hERG potassium channels; CHO-hERG cells, highest test concentration 40.00 µM, read-out: IC50)
CC(C)(C)CC(=O)Nc1nc2c(F)cc(C#N)cn2c1-c1ccc(OC(F)(F)F)cc1 [Compound 1] | > 40 µM | 1.41 µM·h | 51.1% | 67.8 mL/min/kg | 52.8 min | 355 nM | 4.89 L/kg | 66.7% | 
CC(C)(C)CC(=O)Nc1nc2c(F)cc(C#N)cn2c1C1=CCCC1 [Compound 3] |  |  |  |  |  |  |  | 66.7% | > 40 µM
